We go through two compounds from US7435733B2, “Mineralocorticoid receptor modulator compounds and methods, and pharmaceutical compositions containing these compounds” (Ligand Pharmaceuticals, Inc., priority 2004, dated 2008).

For the assay, the target named is T1, human mineralocorticoid receptor protein (MR) (Homo sapiens, UniProt P08235).
T1 construct: made in house; host or cells: Spodoptera frugiperda Sf21 insect cells (baculovirus)
T1 sequence (P08235 1-984): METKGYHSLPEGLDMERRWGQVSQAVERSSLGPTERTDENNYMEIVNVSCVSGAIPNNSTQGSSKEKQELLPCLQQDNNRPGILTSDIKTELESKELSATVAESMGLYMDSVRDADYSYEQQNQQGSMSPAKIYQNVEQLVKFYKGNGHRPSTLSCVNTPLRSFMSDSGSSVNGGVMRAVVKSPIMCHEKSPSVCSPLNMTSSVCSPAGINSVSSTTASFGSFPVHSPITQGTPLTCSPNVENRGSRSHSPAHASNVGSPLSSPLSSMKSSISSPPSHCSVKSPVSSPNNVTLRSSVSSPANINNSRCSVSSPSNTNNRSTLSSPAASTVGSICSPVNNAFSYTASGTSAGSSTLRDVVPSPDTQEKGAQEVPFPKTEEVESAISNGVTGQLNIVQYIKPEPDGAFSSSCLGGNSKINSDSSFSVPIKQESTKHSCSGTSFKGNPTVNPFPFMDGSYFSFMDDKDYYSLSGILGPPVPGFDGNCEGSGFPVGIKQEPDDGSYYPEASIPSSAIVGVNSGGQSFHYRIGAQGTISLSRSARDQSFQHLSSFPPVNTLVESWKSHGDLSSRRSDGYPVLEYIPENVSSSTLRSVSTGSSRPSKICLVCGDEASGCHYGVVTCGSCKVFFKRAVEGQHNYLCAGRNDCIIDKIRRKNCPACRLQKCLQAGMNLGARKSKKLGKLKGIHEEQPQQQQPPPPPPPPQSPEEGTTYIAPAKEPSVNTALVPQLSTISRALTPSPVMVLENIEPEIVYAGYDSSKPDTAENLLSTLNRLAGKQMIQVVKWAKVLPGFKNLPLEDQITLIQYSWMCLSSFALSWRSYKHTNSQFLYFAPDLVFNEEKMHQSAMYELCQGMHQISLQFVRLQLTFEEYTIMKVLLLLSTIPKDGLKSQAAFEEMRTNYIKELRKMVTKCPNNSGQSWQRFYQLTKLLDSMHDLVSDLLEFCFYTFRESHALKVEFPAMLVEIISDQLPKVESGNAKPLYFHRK
As to the kind of experiment: Mineralocorticoid receptor binding assay ([3H]aldosterone displacement, MR lysate). The conditions noted are these: baculovirus-expressed MR lysate from Sf21 cells; 2-4 nM [3H]aldosterone; 16 hours at 4° C.; Cheng-Prusoff from IC50. As for the experimental part: A baculovirus expression plasmid comprising cDNA encoding the human mineralocorticoid receptor protein (MR) was prepared using standard techniques. See e.g. E. A. Allegretto et. al. 268 J. Biol. Chem., 26625 (1993); G. Srinivasan and B. Thompson, 4 Mol. Endo., 209 (1990); and D. R. O'Reilly et. al., in “Baculovirus Expression Vectors”, D. R. O'Reilly et. al., eds., W.H. Freeman, New York, N.Y., pp. 139-179 (1992). That expression plasmid was co-transfected together with wild type Autographa californica multiple nuclear polyhedrosis virus DNA into Spodopter frugiperda-21 (Sf-21) cells to generate recombinant virus comprising MR cDNA. See e.g. O'Reilly, D. R., Miller, L. K., Luckow, V. A., Regulation of expression of a baculovirus ecdysteroid UDP glucosyltransferase gene. “Baculovirus Expression Vectors.” WH Freeman, N.Y., 139-179 (1992). […]
After incubation, 200 μl of 6.25% hydroxylapatite in assay buffer was added to each assay sample to precipitate the protein. […] Radioactivity in counts per minute (CPM) of each washed pellet was determined by liquid scintillation counter (MicroBeta™, Wallach).
Specific binding for a particular sample was calculated using the equation: (Sample CPM)−(Average Non-specific CPM) Average Non-specific CPM was defined as the amount of radioactivity from samples comprising an excess (i.e. 1000 nM) of unlabeled aldosterone. […]

Each structure is given as a SMILES string.

The compound `O=C1Nc2ccc(-c3cccc(C(F)(F)F)c3)c3c2C(CCC3)O1` (racemic) [Compound 101, (±)-7,8,9,9a-Tetrahydro-6-[(3-trifluoromethyl)phenyl]-3H-naphtho[1,8-de][1,3]oxazin-2-one] had a Ki of 0.335 µM. `N#Cc1cccc(-c2ccc3c4c2CCCC4OC(=O)N3)c1` (racemic) [Compound 102, (±)-7,8,9,9a-Tetrahydro-6-(3-cyanophenyl)-3H-naphtho[1,8-de][1,3]oxazin-2-one] came in with a Ki of 0.65 µM.
